Data reported in US20240197871A1, “COMBINATION OF A CAR T CELL THERAPY AND AN IMMUNOMODULATORY COMPOUND FOR TREATMENT OF LYMPHOMA” (Juno Therapeutics, Inc., priority 2021, published 2024).

Legend:
[1] = test system: RL CD19+ tumor cells; experiment: Cytolytic function: co-culture of anti-CD19 CAR T cells with RL CD19+ tumor cells; type: cell-based; details: E:T 1:1
Description: To do so, CAR T cells were plated on ploy-D-lysine plates. CD19+ tumor cells transduced with IncuCyte® NucLight Red (Essen BioScience Inc.) were then added to the CAR T cells in addition to Compound C or vehicle control. Tumor cell number was measured over multiple days.
Treatment with CAR T cells in combination with either immunomodulatory compound led to lower tumor cell numbers than did CAR T cells alone or the compounds alone.

[2] = test system: anti-CD19 CAR T cells; experiment: Viability of anti-CD19 CAR T cells stimulated with anti-idiotypic antibody (live/dead dye); type: cell-based, human; details: Day 3 of culture; 3 or 30 μg/mL anti-idiotypic antibody; three donors
Description: Anti-CD19 CAR-expressing T cell compositions were generated from three different healthy donors as described in Example 1. Prior to use, cryopreserved CD4+ and CD8+ engineered cell compositions were thawed and combined at approximately a 1:1 CD4:CD8 ratio.
Following incubation, stimulated CAR T cells were harvested, washed twice in media, and assessed.
Viability was assessed at Day 3 of culture by flow cytometry using a live/dead cell dye. As shown in FIG. 2A for the three donors (mean±SEM), the compounds had no effect on cell viability when stimulation was carried out either with 3 μg/mL of anti-idiotypic antibody (left panel) or with 30 μg/mL of anti-idiotypic antibody (right panel).

[3] = test system: Granta-519 lymphoma tumor spheroids; experiment: Concentration levels: tumor cell number during re-challenge, concurrent or rescue treatment; type: cell-based
Description: Different concentrations of Compound C were tested for their effects on cytolytic function of CAR T cells following chronic stimulation. CAR T cells were treated with various concentrations of Compound C either during or after chronic stimulation.
Anti-CD19 CAR-expressing T cells, produced as described in Example 1, were chronically stimulated as described in Example 3 (with Compound C present during chronic stimulation), then re-challenged with Granta-519 lymphoma tumor spheroids in the absence of Compound C (concurrent treatment group). In addition, anti-CD19 CAR-expressing T cells were chronically stimulated as described in Example 4 (with Compound C absent during chronic stimulation), then re-challenged with Granta-519 lymphoma tumor spheroids in the presence of Compound C (rescue treatment group). During re-challenge, cytolytic activity was assessed by tumor cell number at various times during co-culture with CAR-T cells.
In both treatment conditions, tumor cell number was reduced compared to control conditions for CAR T cells treated with Compound C at a 0.001 μM concentration. Also in both treatment groups, tumor cell number was higher compared to control conditions for CAR T cells treated with Compound C at 0.01 μM and 0.1 μM concentrations.

[4] = test system: Raji lymphoma tumor spheroids; experiment: Simulated intermittent dosing during chronic stimulation, re-challenge with tumor spheroids; type: cell-based; details: for cytolytic activity of chronically stimulated CAR T cells over four-day re-challenge: P<0.0001
Description: The effects of an intermittent Compound C dosing schedule on CAR T cells was assessed.
Anti-CD19 CAR-expressing T cells, produced as described in Example 1, were chronically stimulated as described in Example 3 in the presence of Compound C. During chronic stimulation, Compound C was present at (i) 50 nM for one day and 1 nM for the remaining five days, (ii) 25 nM for one day and 0.5 nM for the remaining five days, (iii) 10 nM for one day and absent for the remaining five days, or (iv) 1 nM for all six days. Stimulated CAR T cells were then re-challenged with Raji lymphoma tumor spheroids in the absence of Compound C, after which cytolytic activity was assessed.
Similar results are shown in FIG. 7B for a separate experiment in which CAR T cells were chronically stimulated for 7 days in the presence or absence of Compound C. In this experiment, Compound C was present at (i) 50 nM for one day and 1 nM for the remaining six days of stimulation, (ii) 25 nM for one day and 0.5 nM for the remaining six days of stimulation, (iii) 10 nM for all seven days of stimulation, or (iv) 1 nM for all seven days of stimulation. Stimulated CAR T cells were then re-challenged with Raji lymphoma tumor spheroids in the absence of Compound C, after which cytolytic activity was assessed over a four-day period. […] The CAR T cells stimulated for seven days in the presence or absence of Compound C were also analyzed for phenotypic T cell memory markers using flow cytometry following chronic stimulation. […] CD27/CCR7 expression, which is a marker for less differentiated, naïve-like T cells, was highest in CAR-expressing CD8 T cells stimulated in the presence of Compound C at 50 nM for one day and 1 nM for the remaining six days of stimulation (* P<0.05).

[5] = molecular target: T1, Aiolos (Homo sapiens, UniProt Q96SW2+Q9UKT9); experiment: Aiolos degradation in stimulated anti-CD19 CAR T cells (flow cytometry MFI); type: cell-based
T1 construct: analyzed by flow cytometry to assess intracellular levels of Ikaros and Aiolos in CAR+ T cells; endogenous in cells; host or cells: primary human CD4+ and CD8+ T cells from healthy donors, lentivirally transduced with an anti-CD19 CAR
Description: T cell compositions containing anti-CD19 CAR-expressing T cells were generated from leukapheresis samples from five healthy human adult donors by a process that included immunoaffinity-based selection of T cells by separately selecting CD4+ and CD8+ cells from the samples, resulting in two compositions enriched for CD4+ and CD8+ cells, respectively, per donor. Cells of the enriched CD4+ and CD8+ compositions were separately activated with anti-CD3/anti-CD28 beads and subjected to lentiviral transduction with a vector encoding an anti-CD19 CAR. The anti-CD19 CAR contained an anti-CD19 single-chain variable fragment (scFv) derived from a murine antibody (variable region derived from FMC63), an immunoglobulin-derived spacer, a transmembrane domain derived from CD28, a costimulatory region derived from 4-1BB, and a CD3-zeta intracellular signaling domain. The expression construct in the viral vector further contained sequences encoding a surrogate surface marker for CAR expression, which was separated from the CAR-encoding sequence by a T2A ribosome skip sequence. Transduced populations then were separately incubated in the presence of stimulating reagents for cell expansion. Expanded CD4+ and CD8+ cells were formulated and cryopreserved separately and stored.
Prior to use, the cryopreserved CD4+ and CD8+ engineered cell compositions were thawed and combined at approximately a 1:1 CD4:CD8 ratio for each donor. Cells of the combined composition were then stimulated at 37° C. with 5% CO2 for 24 hours with 30 µg/mL of a CAR-specific anti-idiotypic antibody (see, e.g., WO2018/023100).
Following incubation, the stimulated cells were stained with antibodies and analyzed by flow cytometry to assess intracellular levels of Ikaros and Aiolos in CAR+ T cells, as measured by median fluorescence intensity (MFI). MFI values for Ikaros and Aiolos were normalized and calculated as a percentage relative to vehicle control.

T1 sequence (Q9UKT9 whole entry): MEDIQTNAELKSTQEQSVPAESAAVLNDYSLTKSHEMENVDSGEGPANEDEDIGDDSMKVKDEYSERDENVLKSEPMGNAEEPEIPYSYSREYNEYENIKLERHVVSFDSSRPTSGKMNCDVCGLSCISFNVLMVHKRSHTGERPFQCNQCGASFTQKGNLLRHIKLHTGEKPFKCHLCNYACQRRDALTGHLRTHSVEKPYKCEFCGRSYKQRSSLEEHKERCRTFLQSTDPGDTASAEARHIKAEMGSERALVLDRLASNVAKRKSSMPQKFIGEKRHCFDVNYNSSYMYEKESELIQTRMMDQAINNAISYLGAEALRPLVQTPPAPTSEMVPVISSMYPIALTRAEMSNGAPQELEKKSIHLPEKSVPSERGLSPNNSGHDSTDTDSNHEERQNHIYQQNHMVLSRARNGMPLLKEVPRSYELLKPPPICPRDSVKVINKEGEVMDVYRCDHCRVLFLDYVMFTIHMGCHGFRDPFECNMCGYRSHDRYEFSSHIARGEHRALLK
T1 sequence (Q96SW2 whole entry): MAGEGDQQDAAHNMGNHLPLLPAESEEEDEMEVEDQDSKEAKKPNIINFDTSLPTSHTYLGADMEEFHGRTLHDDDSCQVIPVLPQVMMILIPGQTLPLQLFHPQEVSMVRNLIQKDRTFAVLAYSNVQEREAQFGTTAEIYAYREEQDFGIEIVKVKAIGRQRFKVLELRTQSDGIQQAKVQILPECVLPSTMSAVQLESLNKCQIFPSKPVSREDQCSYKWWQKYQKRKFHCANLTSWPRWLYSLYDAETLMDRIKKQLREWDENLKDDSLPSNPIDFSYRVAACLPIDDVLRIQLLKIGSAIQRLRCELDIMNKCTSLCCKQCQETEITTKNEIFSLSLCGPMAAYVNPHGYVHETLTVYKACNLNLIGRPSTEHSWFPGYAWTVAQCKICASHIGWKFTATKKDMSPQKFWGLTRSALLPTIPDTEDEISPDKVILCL
T1 sequence (Q16531 whole entry partner): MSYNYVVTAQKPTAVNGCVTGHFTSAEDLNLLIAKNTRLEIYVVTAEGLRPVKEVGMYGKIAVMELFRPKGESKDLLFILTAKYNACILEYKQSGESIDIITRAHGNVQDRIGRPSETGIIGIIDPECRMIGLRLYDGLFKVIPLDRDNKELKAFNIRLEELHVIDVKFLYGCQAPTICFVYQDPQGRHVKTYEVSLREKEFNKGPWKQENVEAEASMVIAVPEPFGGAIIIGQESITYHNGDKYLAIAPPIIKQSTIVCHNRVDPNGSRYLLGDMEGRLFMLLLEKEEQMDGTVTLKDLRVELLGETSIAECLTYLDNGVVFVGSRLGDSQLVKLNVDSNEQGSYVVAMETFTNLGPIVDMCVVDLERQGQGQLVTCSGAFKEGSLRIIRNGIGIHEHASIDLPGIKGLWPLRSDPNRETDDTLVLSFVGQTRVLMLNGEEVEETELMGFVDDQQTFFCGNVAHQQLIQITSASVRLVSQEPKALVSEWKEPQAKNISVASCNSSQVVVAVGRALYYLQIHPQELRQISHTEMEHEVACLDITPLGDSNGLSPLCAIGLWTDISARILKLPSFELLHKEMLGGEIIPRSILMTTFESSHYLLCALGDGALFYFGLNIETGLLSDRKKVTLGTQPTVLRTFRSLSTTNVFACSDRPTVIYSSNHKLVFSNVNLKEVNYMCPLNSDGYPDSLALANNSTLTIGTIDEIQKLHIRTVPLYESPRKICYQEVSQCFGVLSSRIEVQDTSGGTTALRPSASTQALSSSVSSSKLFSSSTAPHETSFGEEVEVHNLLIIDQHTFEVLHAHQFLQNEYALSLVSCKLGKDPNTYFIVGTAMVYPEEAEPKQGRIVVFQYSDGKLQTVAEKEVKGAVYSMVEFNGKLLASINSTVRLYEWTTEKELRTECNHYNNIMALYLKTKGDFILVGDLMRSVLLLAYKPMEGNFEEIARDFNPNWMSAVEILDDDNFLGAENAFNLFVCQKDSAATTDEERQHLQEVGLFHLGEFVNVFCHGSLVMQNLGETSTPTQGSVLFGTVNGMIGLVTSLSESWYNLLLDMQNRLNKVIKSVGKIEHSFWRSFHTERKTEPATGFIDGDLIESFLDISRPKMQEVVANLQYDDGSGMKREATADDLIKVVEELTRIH

Question: With `O=C1CC[C@H](N2C(=O)c3cccc(NCc4ccc(CN5CC(N6CCOCC6)C5)cc4F)c3C2=O)C(=O)N1` [Compound C, (S)-2-(2,6-dioxopiperidin-3-yl)-4-((2-fluoro-4-((3-morpholinoazetidin-1-yl)methyl)benzyl)amino)isoindoline-1,3-dione] as the compound, how does the “RL tumor cell number vs CAR T cells alone or compound alone” value ([1]; compound at 0.001 μM with anti-CD19 CAR T cells) read?
Answer: Its value is “lower”.

Question: And the “RL tumor cell number vs CAR T cells alone or compound alone” value ([1]; compound at 0.01 μM with anti-CD19 CAR T cells)?
Answer: Its value is “lower”.

Question: And the “RL tumor cell number vs CAR T cells alone or compound alone” value ([1]; compound at 0.1 μM with anti-CD19 CAR T cells)?
Answer: The value was “lower”.

Question: What about the “cell viability (percentage of live CAR T cells)” value [2] of the same compound?
Answer: Its value is “without affecting CAR T cell viability”.

Question: What about the “tumor cell number compared to control conditions” value ([3]; concurrent treatment, 0.001 μM) of the same compound?
Answer: Its value is “reduced”.

Question: What about the “tumor cell number compared to control conditions” value ([3]; concurrent treatment, 0.01 μM) of the same compound?
Answer: Its value is “higher”.

Question: What about the “tumor cell number compared to control conditions” value ([3]; concurrent treatment, 0.1 μM) of the same compound?
Answer: The value was “higher”.

Question: And the “tumor cell number compared to control conditions” value ([3]; rescue treatment, 0.001 μM)?
Answer: The value was “reduced”.

Question: What about the “tumor cell number compared to control conditions” value ([3]; rescue treatment, 0.01 μM) of the same compound?
Answer: The value was “higher”.

Question: What about the “tumor cell number compared to control conditions” value ([3]; rescue treatment, 0.1 μM) of the same compound?
Answer: The value was “higher”.

Question: And the “cytolytic activity of chronically stimulated CAR T cells (tumor cell number during re-challenge)” value ([4]; 25 nM for one day and 0.5 nM for the remaining five days of stimulation)?
Answer: The value was “most increase in cytolytic activity”.

Question: What about the “cytolytic activity of chronically stimulated CAR T cells over four-day re-challenge” value ([4]; 25 nM for one day and 0.5 nM for the remaining six days of stimulation) of the same compound?
Answer: Its value is “improved cytolytic activity”.

Question: What about the “cytolytic activity of chronically stimulated CAR T cells (tumor cell number during re-challenge)” value ([4]; 50 nM for one day and 1 nM for the remaining five days of stimulation) of the same compound?
Answer: Its value is “most increase in cytolytic activity”.

Question: And the “cytolytic activity of chronically stimulated CAR T cells over four-day re-challenge” value ([4]; 50 nM for one day and 1 nM for the remaining six days of stimulation)?
Answer: Its value is “improved cytolytic activity”.

Question: What about the DC50 ([5]; anti-CD19 CAR T cells, 24 hours stimulation with anti-idiotypic antibody, concentration reducing MFI to 50%, average of five donors, read-out: Average EC50 Values (95% Confidence Interval), Aiolos) of the same compound?
Answer: The DC50 was 0.25 nM.

Question: What about the “intracellular Aiolos expression (MFI relative to vehicle control)” value ([5]; approximately 10^-1 to 10^4 nM, 24 hours) of the same compound?
Answer: Its value is “Concentration-dependent decreases”.

Question: And the “Aiolos expression compared with Compound 2 or Compound 1” value ([5]; at all compound concentration levels tested)?
Answer: The value was “lower”.
